Laboratory results: patent US12084431B2, “Pharmaceutical salts of pyrimidine derivatives and method of treating disorders” (ARIAD Pharmaceuticals, Inc., priority 2018, dated 2024)

Experiments:
[1] = Thermodynamic aqueous solubility studies (de-ionized water, 24 h, HPLC concentration, filtrate pH, XRPD of solid); conditions: for solubility at 24 h: de-ionized water, pH 6.97, water, thermodynamic from solid; for pH at Saturation: pH of filtrate after 24 h slurry in de-ionized water (pH 6.97), ambient temperature
Description: The resulting solid material was isolated by centrifugation and analyzed by XRPD, while the filtrate was analyzed by HPLC for concentration determination. The pH of the resulting filtrate was also determined.

[2] = Vapour sorption analysis (GVS, hygroscopicity); type: physicochemical; conditions: % uptake at 90% RH
Description: Approximately 10 mg of the sample was placed into a mesh vapor sorption balance pan and loaded into an IGASorp Moisture Sorption Analyzer balance by Hiden Analytical. The sample was subjected to a ramping profile from 40 to 90% relative humidity (RH) at 10% increments to 90% RH, maintaining the sample at each step until a stable weight had been achieved (98% step completion). After completion of the sorption cycle, the sample was dried using the same procedure (initially from 90% RH to 0% RH and finally taken back to the starting point of 40% RH). The sorption/desorption profiles were then repeated to give a double-cycle plot. The weight changes during the sorption/desorption cycles were plotted, allowing for the hygroscopic nature of the sample to be determined.

[3] = Stability stress testing (ambient light, 40° C./75% RH, 80° C., 7 days; XRPD and HPLC purity); type: physicochemical; conditions: for Purity, 40° C./75% RH / Purity, 80° C. / Purity, Ambient light: HPLC purity after 7 days, open vial; for Purity, Ambient light: room temperature; for XRPD after storage: 7 days; for Input purity: HPLC purity before stress storage; for Chemical Stability: summary in Table 17
Description: Approximately 5 mg of the appropriate samples were placed into 2 mL clear glass vials and the vials were all stored open under the conditions of ambient light, 40° C./75% RH, and 80° C. for 7 days, respectively. The ambient light sample was left open on the bench at room temperature. The 80° C. sample was placed open into an 80° C. oven.

[4] = Phase 1/2 study, safety (adverse events, dose limiting toxicities, MTD); conditions: human, in vivo
Description: Patients with advanced NSCLC refractory to standard therapy received daily oral doses (5-120 mg) of Compound (A) in the dose-escalation phase. Compound (A) was provided as polymorphic Form-I of the succinate salt of Compound (A). Compound (A) was formulated as a drug-in-capsule with no excipients and administered orally. Preliminary antitumor activity (by RECIST v1.1), safety and pharmacokinetics are reported for patients receiving at least one dose.
As part of the same phase ½ study as described in Example 12, a dose escalation study was performed. […] 2018.
The phase 2 portion of the study was initiated to expand the study in two 160 mg QD cohorts (EGFR exon 20 mutant NSCLC patients with or without brain metastases) and continue to enroll more patients in the 120 mg cohort.

[5] = system: advanced NSCLC (EGFR exon 20 insertions); test: Phase 1/2 study, antitumor activity / disease assessment by RECIST v1.1; type: in vivo, human; conditions: 160 mg QD
Description: 52 patients were enrolled as of 30 Jan. 2018.
Disease stabilization started to be reported at the 40 mg QD cohort. Disease assessments for patients who had at least one disease assessment following treatment with Compound (A) are shown in Table 21. All patients who responded have EGFR exon 20 insertion mutations and had previously been treated with platinum-based chemotherapy, EGFR TKIs, or PD-1 inhibitors.

[6] = Solubility in Water, de-ionized water (pH 6.97), slurry shaken at ambient temperature for 24 h, filtrate by HPLC, salts of Compound (A)
[7] = all storage conditions (ambient light, 40° C./75% RH, 80° C.)
[8] = other 2 conditions (40° C./75% RH and 80° C.)
[9] = number of the 26 patients in efficacy analysis

| Compound | pH at Saturation [1] | GVS (Hygroscopicity) [2] | Purity, 40° C./75% RH [3] | Purity, 80° C. [3] | Purity, Ambient light ([3]; ambient light) | solubility at 24 h [1, 6] | XRPD after storage [3, 7] | Input purity [3] | Chemical Stability [3] | XRPD after storage ([3]; ambient light) | also measured |
| --- | --- | --- | --- | --- | --- | --- | --- | --- | --- | --- | --- |
| C=CC(=O)Nc1cc(Nc2ncc(C(=O)OC(C)C)c(-c3cn(C)c4ccccc34)n2)c(OC)cc1N(C)CCN(C)C [Free Base, isopropyl 2-((5-acrylamido-4-((2-(dimethylamino)ethyl) (methyl)amino)-2-methoxyphenyl)amino)-4-(1-methyl-1H-indol-3-yl)pyrimidine-5-carboxylate] | 7.81 | 0.3% | 99.5 | 99.5 | 99.5 | – | – | – | – | – | solubility at 24 h [1]: < 0.01 mg/mL |
| C=CC(=O)Nc1cc(Nc2ncc(C(=O)OC(C)C)c(-c3cn(C)c4ccccc34)n2)c(OC)cc1N(C)CCN(C)C.O=C(O)/C=C/C(=O)O [Fumarate, isopropyl 2-((5-acrylamido-4-((2-(dimethylamino)ethyl) (methyl)amino)-2-methoxyphenyl)amino)-4-(1-methyl-1H-indol-3-yl)pyrimidine-5-carboxylate fumarate] | 3.98 | 2.0% | 99.5 | 99.5 | 99.5 | 0.1 mg/mL | No change under all storage | 99.7 | Stable | – | – |
| Br.C=CC(=O)Nc1cc(Nc2ncc(C(=O)OC(C)C)c(-c3cn(C)c4ccccc34)n2)c(OC)cc1N(C)CCN(C)C [HBr, isopropyl 2-((5-acrylamido-4-((2-(dimethylamino)ethyl) (methyl)amino)-2-methoxyphenyl)amino)-4-(1-methyl-1H-indol-3-yl)pyrimidine-5-carboxylate hydrobromide] | 6.30 | 0.6% | 99.6 | 99.5 | 99.6 | 0.1 mg/mL | No change under all storage | 99.7 | Stable | – | – |
| C=CC(=O)Nc1cc(Nc2ncc(C(=O)OC(C)C)c(-c3cn(C)c4ccccc34)n2)c(OC)cc1N(C)CCN(C)C.Cl [HCl, isopropyl 2-((5-acrylamido-4-((2-(dimethylamino)ethyl) (methyl)amino)-2-methoxyphenyl)amino)-4-(1-methyl-1H-indol-3-yl)pyrimidine-5-carboxylate hydrochloride] | 6.47 | 10.% | 74.5 | 91.3 | 95.1 | 5.8 mg/mL | – | 99.0 | Degradation | No change at ambient light; | XRPD after storage [3, 8]: changes observed in other 2 |
| C=CC(=O)Nc1cc(Nc2ncc(C(=O)OC(C)C)c(-c3cn(C)c4ccccc34)n2)c(OC)cc1N(C)CCN(C)C.CS(=O)(=O)O [Mesylate, isopropyl 2-((5-acrylamido-4-((2-(dimethylamino)ethyl) (methyl)amino)-2-methoxyphenyl)amino)-4-(1-methyl-1H-indol-3-yl)pyrimidine-5-carboxylate mesylate] | 2.90 | Drying Form | 99.6 | 99.6 | 99.6 | > 70 mg/mL | – | 99.7 | Stable | No change at ambient light; | – |
| C=CC(=O)Nc1cc(Nc2ncc(C(=O)OC(C)C)c(-c3cn(C)c4ccccc34)n2)c(OC)cc1N(C)CCN(C)C.O=C(O)C(=O)O [Oxalate, isopropyl 2-((5-acrylamido-4-((2-(dimethylamino)ethyl) (methyl)amino)-2-methoxyphenyl)amino)-4-(1-methyl-1H-indol-3-yl)pyrimidine-5-carboxylate oxalate] | 3.00 | 2.0% | 99.6 | 99.6 | 99.6 | 6.8 mg/mL | – | 99.7 | Stable | No change at ambient light; | XRPD after storage [3, 8]: minor changes observed in |
| C=CC(=O)Nc1cc(Nc2ncc(C(=O)OC(C)C)c(-c3cn(C)c4ccccc34)n2)c(OC)cc1N(C)CCN(C)C [Succinate, isopropyl 2-((5-acrylamido-4-((2-(dimethylamino)ethyl) (methyl)amino)-2-methoxyphenyl)amino)-4-(1-methyl-1H-indol-3-yl)pyrimidine-5-carboxylate succinate] | – | – | – | – | – | 1.9 mg/mL | No change under all storage | 99.7 | Stable | – | patients with any TEAE leading to treatment discontinuation [4]: 18.8%; patients with at least 1 Grade≥3 TEAE [4]: 58.4%; patients with at least 1 Grade≥3 TRAE [4]: 29.7%; patients with at least 1 TEAE [4]: 98.0%; patients with at least 1 TRAE [4]: 91.1%; patients with at least 1 treatment-emergent SAE [4]: 35.6%; patients with at least 1 treatment-related SAE [4]: 10.9%; overall response rate (ORR) (best response) ([5]; 26 patients with EGFR exon 20 insertion mutations, 95% CI: 33.37%, 73.41%): 53.8%; disease control rate (DCR) ([5]; 26 patients with EGFR exon 20 insertion mutations, 95% CI: 69.85%, 97.55%): 88.5%; confirmed partial response (PR) [5, 9]: 7; unconfirmed PR awaiting confirmation [5, 9]: 6; pH at Saturation ([1]; succinate): 5.00; GVS (Hygroscopicity) ([2]; succinate): 1.3%; Purity, 40° C./75% RH ([3]; succinate): 99.6; Purity, 80° C. ([3]; succinate): 99.6; Purity, Ambient light ([3]; ambient light, succinate): 99.6 |
| C=CC(=O)Nc1cc(Nc2ncc(C(=O)OC(C)C)c(-c3cn(C)c4ccccc34)n2)c(OC)cc1N(C)CCN(C)C.O=S(=O)(O)O [Sulfate, isopropyl 2-((5-acrylamido-4-((2-(dimethylamino)ethyl) (methyl)amino)-2-methoxyphenyl)amino)-4-(1-methyl-1H-indol-3-yl)pyrimidine-5-carboxylate sulfate] | 2.19 | 11% | 96.2 | 94.9 | 98.6 | – | – | 98.3 | Degradation | No change at ambient light; | solubility at 24 h [1]: > 240 mg/mL |
| isopropyl 2-((5-acrylamido-4-((2-(dimethylamino)ethyl) (methyl)amino)-2-methoxyphenyl)amino)-4-(1-methyl-1H-indol-3-yl)pyrimidine-5-carboxylate hippurate | – | 0.2% | – | 99.6 | 99.6 | – | No change under all storage | 99.7 | Stable | – | – |
